Laboratory results: publication PMC4750701, “Role of Mitochondrial RNA Polymerase in the Toxicity of Nucleotide Inhibitors of Hepatitis C Virus” (Antimicrobial Agents and Chemotherapy, 2016)

Key:
[1] = molecular target: T1, Recombinant human DNA polymerase beta (Homo sapiens, UniProt P06746); experiment: Inhibition of human DNA polymerase beta; type: biochemical; conditions: triphosphate form of the compound tested; read-out: Mean IC50 ± SD for DNA Pol β
T1 construct: host or cells: E. coli
Source text: (§1) Activated fish sperm DNA was purchased from USB/Affymetrix (Santa Clara, CA) and used as a template for the DNA polymerases alpha, beta, and gamma. The DNA template used in the RNA Pol II assay was a 1,188-bp restriction fragment containing the cytomegalovirus (CMV) immediate early promoter (Promega, Madison, WI). The RNA and DNA oligonucleotides used in the mitochondrial RNA polymerase assay (see Table S1 in the supplemental material) were synthesized and PAGE purified by Thermo Scientific/Dharmacon (Lafayette, CO). RNA primer R12 was 5′-^32P-phosphorylated with [γ-^32P]ATP (3,000 Ci/mmol) and T4 kinase (New England BioLabs, Ipswich, MA).
(§2) Human DNA polymerase alpha, isolated from HeLa cell extracts, was from CHIMERx (Madison, WI). Recombinant human DNA polymerase beta, expressed in E. coli, was a gift from Zucai Suo at The Ohio State University. Recombinant human DNA polymerase gamma (including both the large subunit and the small subunit) was cloned, expressed, and purified from insect cells by Gilead Sciences (Foster City, CA) ([13]). RNA PolII was purchased as part of the HeLaScribe nuclear extract in vitro transcription system kit from Promega (Madison, WI). The recombinant human PolRMT and the transcription factors mitochondrial transcription factor A (mtTFA) and B2 (mtTFB2) were purchased from Enzymax (Lexington, KY). FLAG epitope-tagged RNA PolI and PolIII complexes were isolated from rat NSN1 cells and HeLa cells, respectively ([17], [18]). The inhibition of DNA polymerases alpha, beta, and gamma, PolRMT, and PolII and the rate of single-nucleotide incorporation by PolRMT have been described previously in detail ([12], [13], [19]). Inhibition of RNA PolI and PolIII was studied using published methods ([20], [21]). All concentrations were final unless noted otherwise. For the RNA PolI inhibition assay, a reaction mixture containing 50 mM HEPES (pH 7.9), 20% glycerol, 100 mM KCl, 1 mM dithiothreitol (DTT), 50 μg/ml calf thymus DNA, 4 mM MgCl2, 5 or 80 μM UTP (0.25 μl of [5,6-^3H]UTP, >25 Ci/mmol; PerkinElmer), 1 mM noncompeting NTP, competing NTP (5 μM for GTP, CTP, and UTP and 25 μM for ATP), and various concentrations (0 to 500 μM) of NTP analogs was preincubated at 30°C for 5 min. […] After incubation at 30°C for 20 min to 1 h, the reactions were terminated by pipetting the mixtures onto DEAE-cellulose discs (DE81; Whatman), and the products analyzed as described previously ([20], [21]).

[2] = test system: mitochondrial DNA-encoded cytochrome c oxidase (COX-1; complex IV) protein level; experiment: Mitochondrial protein synthesis assay (COX-1, MitoBiogenesis in-cell ELISA) in PC-3 cells; type: cell-based, human; conditions: human; PC-3 cells, COX-1, 5 days; read-out: Mean CC50 ± SD causing Mitochondrial toxicity: Protein synthesis
How it was run: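 PC-3 cells were exposed to compound for 5 days. Protein levels of nuclear-encoded SDH-A and mitochondrial-encoded COX-1 were then quantified by in-cell ELISA (quantitative immunocytochemistry).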

[3] = molecular target: T2, Human DNA polymerase alpha (Homo sapiens, UniProt P09884); experiment: Inhibition of human DNA polymerase alpha; type: biochemical; conditions: triphosphate form of the compound tested; read-out: Mean IC50 ± SD for DNA Pol α
T2 construct: isolated from HeLa cell extracts; purchased CHIMERx (Madison, WI); host or cells: HeLa cell extracts (endogenous enzyme)
T2 sequence (P09884 whole entry): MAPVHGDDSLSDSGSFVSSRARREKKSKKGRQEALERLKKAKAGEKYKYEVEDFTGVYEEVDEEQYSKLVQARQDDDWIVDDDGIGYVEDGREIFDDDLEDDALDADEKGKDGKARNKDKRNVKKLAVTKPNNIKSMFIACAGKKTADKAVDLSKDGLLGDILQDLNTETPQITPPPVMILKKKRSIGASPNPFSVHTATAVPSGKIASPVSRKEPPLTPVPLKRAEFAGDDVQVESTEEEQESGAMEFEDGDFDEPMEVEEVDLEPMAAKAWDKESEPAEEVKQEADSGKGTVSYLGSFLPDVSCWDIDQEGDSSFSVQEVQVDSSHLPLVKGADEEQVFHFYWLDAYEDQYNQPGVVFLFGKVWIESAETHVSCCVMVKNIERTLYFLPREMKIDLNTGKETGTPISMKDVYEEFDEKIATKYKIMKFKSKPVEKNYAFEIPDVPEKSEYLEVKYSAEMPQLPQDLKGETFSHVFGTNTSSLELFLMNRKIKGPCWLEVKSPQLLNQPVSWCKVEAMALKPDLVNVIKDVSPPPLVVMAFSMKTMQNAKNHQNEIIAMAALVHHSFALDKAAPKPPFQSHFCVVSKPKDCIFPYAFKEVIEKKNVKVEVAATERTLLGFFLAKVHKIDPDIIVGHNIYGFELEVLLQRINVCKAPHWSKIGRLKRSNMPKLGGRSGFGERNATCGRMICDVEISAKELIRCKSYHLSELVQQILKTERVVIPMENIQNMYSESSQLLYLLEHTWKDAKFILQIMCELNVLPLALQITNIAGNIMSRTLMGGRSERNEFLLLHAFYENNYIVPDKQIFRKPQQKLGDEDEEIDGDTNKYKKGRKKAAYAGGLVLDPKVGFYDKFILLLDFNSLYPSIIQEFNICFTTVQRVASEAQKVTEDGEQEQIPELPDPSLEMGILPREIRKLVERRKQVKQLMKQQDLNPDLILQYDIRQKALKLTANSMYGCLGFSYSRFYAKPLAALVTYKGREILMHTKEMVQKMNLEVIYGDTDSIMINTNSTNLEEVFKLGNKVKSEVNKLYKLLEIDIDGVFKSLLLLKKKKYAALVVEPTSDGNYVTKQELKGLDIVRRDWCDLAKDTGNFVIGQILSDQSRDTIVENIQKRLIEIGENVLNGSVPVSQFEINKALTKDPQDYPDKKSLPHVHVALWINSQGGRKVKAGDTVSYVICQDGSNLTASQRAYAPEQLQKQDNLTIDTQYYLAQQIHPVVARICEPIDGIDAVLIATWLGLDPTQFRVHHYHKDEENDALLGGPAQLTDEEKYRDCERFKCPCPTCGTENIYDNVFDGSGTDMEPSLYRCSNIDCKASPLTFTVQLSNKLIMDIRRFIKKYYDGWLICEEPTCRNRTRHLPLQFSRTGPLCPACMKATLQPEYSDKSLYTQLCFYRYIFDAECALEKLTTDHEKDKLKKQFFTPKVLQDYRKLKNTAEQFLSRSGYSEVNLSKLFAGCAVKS
T2 sequence (Q14181 whole entry partner): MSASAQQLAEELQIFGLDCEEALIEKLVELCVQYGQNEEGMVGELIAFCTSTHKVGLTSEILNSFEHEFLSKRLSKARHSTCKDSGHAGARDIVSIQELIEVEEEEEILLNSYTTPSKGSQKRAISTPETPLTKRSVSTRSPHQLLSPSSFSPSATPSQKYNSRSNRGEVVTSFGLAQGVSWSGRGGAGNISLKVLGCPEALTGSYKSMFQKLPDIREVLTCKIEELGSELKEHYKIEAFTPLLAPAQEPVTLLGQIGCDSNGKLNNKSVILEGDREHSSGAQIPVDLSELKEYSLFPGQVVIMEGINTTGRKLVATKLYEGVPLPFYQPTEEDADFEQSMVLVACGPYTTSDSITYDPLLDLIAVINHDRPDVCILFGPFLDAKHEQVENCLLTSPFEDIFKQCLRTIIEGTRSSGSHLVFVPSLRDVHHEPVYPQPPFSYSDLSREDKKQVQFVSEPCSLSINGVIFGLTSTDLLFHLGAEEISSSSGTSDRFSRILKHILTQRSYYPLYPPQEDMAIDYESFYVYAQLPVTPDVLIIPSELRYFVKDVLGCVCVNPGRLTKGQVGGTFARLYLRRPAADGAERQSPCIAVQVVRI
T2 sequence (P49642 whole entry partner): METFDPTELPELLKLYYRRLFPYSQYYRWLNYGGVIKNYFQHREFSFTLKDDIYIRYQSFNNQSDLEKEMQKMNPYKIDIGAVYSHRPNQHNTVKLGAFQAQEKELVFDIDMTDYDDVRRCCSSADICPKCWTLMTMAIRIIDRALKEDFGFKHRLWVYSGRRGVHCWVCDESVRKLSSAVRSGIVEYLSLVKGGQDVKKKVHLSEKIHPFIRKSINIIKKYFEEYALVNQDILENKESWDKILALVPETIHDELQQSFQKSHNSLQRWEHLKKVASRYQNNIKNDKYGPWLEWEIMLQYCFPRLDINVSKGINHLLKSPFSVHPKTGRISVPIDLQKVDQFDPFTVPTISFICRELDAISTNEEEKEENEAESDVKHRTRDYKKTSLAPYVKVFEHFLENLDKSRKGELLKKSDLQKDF
T2 sequence (P49643 whole entry partner): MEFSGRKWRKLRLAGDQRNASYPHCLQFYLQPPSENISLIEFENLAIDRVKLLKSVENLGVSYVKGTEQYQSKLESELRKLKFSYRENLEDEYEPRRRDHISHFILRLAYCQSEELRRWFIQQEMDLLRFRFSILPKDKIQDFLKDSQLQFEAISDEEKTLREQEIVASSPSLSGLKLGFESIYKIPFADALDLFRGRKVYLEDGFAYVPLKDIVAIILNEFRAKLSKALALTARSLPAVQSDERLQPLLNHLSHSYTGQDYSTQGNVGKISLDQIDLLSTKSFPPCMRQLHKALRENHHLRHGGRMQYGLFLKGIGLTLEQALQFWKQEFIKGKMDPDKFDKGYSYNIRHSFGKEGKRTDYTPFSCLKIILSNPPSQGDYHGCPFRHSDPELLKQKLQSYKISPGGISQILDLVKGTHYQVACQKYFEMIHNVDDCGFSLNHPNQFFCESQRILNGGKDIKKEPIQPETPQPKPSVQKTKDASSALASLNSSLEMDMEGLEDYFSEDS
Source text: as §1, with “The DNA template used in the RNA Pol II assay was a 1,188-bp restriction fragment containing the cytomegalovirus (CMV) immediate early promoter (Promega, Madison, WI).” left out
as §2, with “otherwise.” for “otherwise. For the RNA PolI inhibition assay, a reaction mixture containing 50 mM HEPES (pH 7.9), 20% glycerol, 100 mM KCl, 1 mM dithiothreitol (DTT), 50 μg/ml calf thymus DNA, 4 mM MgCl2, 5 or 80 μM UTP (0.25 μl of [5,6-^3H]UTP, >25 Ci/mmol; PerkinElmer), 1 mM noncompeting NTP, competing NTP (5 μM for GTP, CTP, and UTP and 25 μM for ATP), and various concentrations (0 to 500 μM) of NTP analogs was preincubated at 30°C for 5 min.”

recombinant human PolRMT = molecular target: T3, recombinant human PolRMT (Homo sapiens, UniProt O00411); experiment: Inhibition of PolRMT-catalyzed RNA synthesis; type: biochemical; conditions: triphosphate form of the compound tested (Table 4); read-out: Mean IC50 ± SD for PolRMT
T3 construct: purchased Enzymax (Lexington, KY)
T3 sequence (O00411 42-1230): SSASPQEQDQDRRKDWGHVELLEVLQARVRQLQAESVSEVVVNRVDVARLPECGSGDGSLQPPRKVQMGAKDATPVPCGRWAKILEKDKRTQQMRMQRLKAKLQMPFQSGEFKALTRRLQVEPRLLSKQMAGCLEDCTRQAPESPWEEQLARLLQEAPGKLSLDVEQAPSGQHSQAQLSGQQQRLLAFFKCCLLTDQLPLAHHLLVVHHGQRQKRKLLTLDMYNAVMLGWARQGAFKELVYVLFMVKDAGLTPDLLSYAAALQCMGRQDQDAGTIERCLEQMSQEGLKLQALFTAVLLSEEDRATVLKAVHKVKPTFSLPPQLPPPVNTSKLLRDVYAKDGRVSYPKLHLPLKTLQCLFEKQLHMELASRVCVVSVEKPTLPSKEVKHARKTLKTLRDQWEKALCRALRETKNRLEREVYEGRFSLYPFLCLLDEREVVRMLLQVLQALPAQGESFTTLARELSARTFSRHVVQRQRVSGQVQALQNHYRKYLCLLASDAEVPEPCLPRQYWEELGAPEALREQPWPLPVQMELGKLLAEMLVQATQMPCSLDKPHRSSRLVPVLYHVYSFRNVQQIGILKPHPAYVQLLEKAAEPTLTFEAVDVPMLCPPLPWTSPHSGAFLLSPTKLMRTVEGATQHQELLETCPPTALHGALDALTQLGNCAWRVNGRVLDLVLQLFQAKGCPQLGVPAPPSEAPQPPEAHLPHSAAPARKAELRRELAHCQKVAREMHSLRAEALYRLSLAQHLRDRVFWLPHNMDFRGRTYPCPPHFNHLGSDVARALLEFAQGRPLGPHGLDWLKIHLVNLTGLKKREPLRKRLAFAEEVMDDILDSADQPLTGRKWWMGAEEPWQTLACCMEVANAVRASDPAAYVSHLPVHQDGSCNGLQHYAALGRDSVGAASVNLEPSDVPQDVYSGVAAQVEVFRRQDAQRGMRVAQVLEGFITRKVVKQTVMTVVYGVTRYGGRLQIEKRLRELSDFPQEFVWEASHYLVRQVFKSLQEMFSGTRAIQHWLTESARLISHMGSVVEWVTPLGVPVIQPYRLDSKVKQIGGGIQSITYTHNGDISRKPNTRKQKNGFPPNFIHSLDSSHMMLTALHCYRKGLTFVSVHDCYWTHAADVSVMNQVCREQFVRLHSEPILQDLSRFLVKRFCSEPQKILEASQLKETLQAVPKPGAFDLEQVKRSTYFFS
Source text: as §1, with “The DNA template used in the RNA Pol II assay was a 1,188-bp restriction fragment containing the cytomegalovirus (CMV) immediate early promoter (Promega, Madison, WI).” left out
as §2, with “otherwise.” for “otherwise. For the RNA PolI inhibition assay, a reaction mixture containing 50 mM HEPES (pH 7.9), 20% glycerol, 100 mM KCl, 1 mM dithiothreitol (DTT), 50 μg/ml calf thymus DNA, 4 mM MgCl2, 5 or 80 μM UTP (0.25 μl of [5,6-^3H]UTP, >25 Ci/mmol; PerkinElmer), 1 mM noncompeting NTP, competing NTP (5 μM for GTP, CTP, and UTP and 25 μM for ATP), and various concentrations (0 to 500 μM) of NTP analogs was preincubated at 30°C for 5 min.”

Row | Structure (SMILES) | IC50 [1] | IC50 [3] | IC50 (recombinant human PolRMT) | CC50 at 5 days [2] | CC50 [2]
1 | C[C@@]1(O)[C@H](O)[C@@H](CO)O[C@H]1n1ccc(N)nc1=O [2′CMeC, 2′-C-methyl (2′CMe) cytidine] | > 200 µM | > 200 µM | 230 ± 90 µM | 50 ± 25 µM | 
2 | C[C@@]1(O)[C@H](O)[C@@H](COP(=O)(O)OP(=O)(O)OP(=O)(O)O)O[C@H]1n1cnc2c(=O)[nH]c(N)nc21 [2′CMeGTP] | > 200 µM | > 200 µM |  |  | 
3 | [N-]=[N+]=N[C@]1(CO)O[C@@H](n2ccc(N)nc2=O)[C@H](O)[C@@H]1O [4′-AzidoC, 4′-azido cytidine] | > 200 µM | > 200 µM | 3.8 ± 2 µM | 11 ± 3 µM | 
4 | COc1nc(N)nc2c1ncn2[C@@H]1O[C@H](COP(=O)(N[C@@H](C)C(=O)OCC(C)(C)C)Oc2cccc3ccccc23)[C@@H](O)[C@@]1(C)O (stereo partly shown) [BMS-986094] |  |  | 52 µM |  | 0.68 ± 0.1 µM
5 | CC(C)OC(=O)[C@H](C)N[P@](=O)(OC[C@H]1O[C@@](C#N)(c2ccc3c(N)ncnn23)[C@](C)(O)[C@@H]1OC(=O)C(C)C)Oc1ccccc1 [GS-6620] | > 200 µM | > 200 µM | > 500 µM |  | 31 ± 5 µM
6 | CC(C)OC(=O)[C@H](C)N[P@](=O)(OC[C@H]1O[C@@H](n2ccc(=O)[nH]c2=O)[C@](C)(F)[C@@H]1O)Oc1ccccc1 [Sofosbuvir] | > 200 µM | > 200 µM | > 500 µM | > 100 µM | 

Continued, in another order:

Row | IC50 [1] | IC50 [3] | IC50 (recombinant human PolRMT) | Structure (SMILES) | CC50 at 5 days [2] | CC50 [2]
7 | > 200 µM | > 200 µM | > 500 µM | CCOc1nc(N)nc2c1ncn2[C@@H]1O[C@@H]2COP(=O)(OC(C)C)O[C@H]2[C@@]1(C)F (stereo partly shown) [PSI-938] | > 100 µM | 
8 | > 200 µM | > 200 µM | > 500 µM | C[C@@]1(F)[C@H](O)[C@@H](CO)O[C@H]1n1ccc(N)nc1=O [PSI-6130] | 70 ± 14 µM | 
